Where two headings read alike, the source gives them in different places.
Assays:
[1] = test system: scopolamine induced memory deficit; test: Dark Avoidance Assay (scopolamine-induced memory deficit); format: in vivo; conditions: mice, 24 hours
Description: In this assay mice are tested for their ability to remember an unpleasant stimulus for a period of 24 hours. A mouse is placed in a chamber that contains a dark compartment; a strong incandescent light drives it to the dark compartment, where an electric shock is administered through metal plates on the floor. The animal is removed from the testing apparatus and tested again, 24 hours later, for the ability to remember the electric shock. If scopolamine, an anticholinergic that is known to cause memory impairment, is administered before an animal's initial exposure to the test chamber, the animal re-enters the dark compartment shortly after being placed in the test chamber 24 hours later.

[2] = test system: sensitivity of mice to pressure stress (artery clip on tail); test: Modified Haffner's analgesia (artery clip on tail); format: in vivo, mice (male, Charles River, CD-1); conditions: Mus musculus, sc, read-out: Modified Haffner's Analgesia ED50
Excerpt: The latter assay is used to evaluate analgesic activity by measuring drug-induced changes in the sensitivty of mice to pressure stress by placing an artery clip (21/2 inches long) on their tail. The procedure used is a modification of the test developed by Haffner, Dtsch. Med. Wschr. 55, 731 (1929), and it is described below:
Male mice (Charles River, CD-1) from 18-30 grams are used for the test. An artery clip is applied to the root of the tail of a mouse (approximately 1/2 inch from the body) to induce pain. The animals quickly responds to this noxious stimuli by biting the clip or the location of the clip. This reaction time, the interval between stimulus onset and response, is recorded on 1/10 second increments by a stop watch.
For a time response, the screening dose (25 mg/kg) is administered subcutaneously (10 ml/kg) to the animal receiving food and water ad libitum before testing. Animals receiving the compound orally are fasted 18-24 hours before drug administration. Drug to be tested is prepared with distilled water and if insoluble, one drop of a surfactant is added.
Twenty-eight animals (seven/group) are administered the drug 15, 30, 45 and 60 minutes prior to testing.
The cut-off time (CO) is determined by taking the (x) average+3 standard (SD) deviation of the combined response latencies of the control mice in all time periods.
Any reaction time, in subsequent drug tests, which is greater than the CO (for the same time period) therefore exceeds 99% of normal Gaussian distribution and is called "positive response" indicative of analgesic activity. A time response indicates the period of greatest analgesic effect after dosing. The ED50 is determined at the peak time of drug activity. A minimum of three dose groups are used. ED50 's are calcualted using computer analysis.

[3] = test system: 2-phenyl-1,4-benzoquinone-induced writhing; test: 2-phenyl-1,4-benzoquinone-induced writhing (PQW) test in mice; format: in vivo; conditions: Mus musculus, sc, read-out: PQW ED50
Excerpt: Compounds I of the present invention are useful as analgesic agents due to their ability to alleviate pain in mammals. […] Exptl. Biol. Med., 95, 729 (1957)] and in modified Haffner's analgesia.

[4] = test system: tetrabenazine-induced ptosis; test: Prevention of Tetrabenazine-Induced Ptosis in Mice; format: in vivo, mice (male); conditions: Mus musculus, po, read-out: Antidepressant activity ED50
Excerpt: The test method and results are described below.
Tetrabenazine (TBZ) induces behavioral depression with concomitant ptosis in mice similar to reserpine. Antidepressant compounds, both monoamineoxidase inhibitors and tricyclics, are known to prevent or antagonize these effects and the degree of antagonism correlates with clinical efficacy. The prevention of […] ptosis in mice is used as a preliminary screen for possible antidepressant activity. The method used in this invention is as follows:
Male mice weighing 20 to 30 grams are used in test groups of five subjects. All compounds are dissolved or suspended with a suitable surfactant in distilled water and administered in volumes of 10 ml/kg of body weight. TBZ solution is made from the methanesulfonate salt and the concentration is adjusted to enable administration of 60 mg/kg of base by intraperitoneal (i.p.) injection.
The pretreatment time is measured from the time of dosing to observation. Therefore, when a 30-minute pretreat is utilized, drug and TBZ are given simultaneously. A control group received solvent and TBZ at intervals identical to drug group. For a primary screen, the drug is administered i.p. and a group size of five is utilized. Eight animals/group are used for a dose range.
The total score for each group of five in a primary screen will, therefore, be from 0 to 20 and these scores are used as indications of drug activity.
The vehicle control group score is used as a determinant of the validity of each test. […] The calculation of percent inhibition of ptosis is: [formula]

[5] = test system: supramaximal electroshock (extensor tonus); test: Anticonvulsant activity, supramaximal electroshock (SES) assay; format: in vivo; conditions: ip; male mouse, at peak activity time
Description: Compounds I of the present invention are also useful as anticonvulsant agents due to their anticonvulsant activity in mammals. Anticonvulsant activity is measured in the male mouse using the supramaximal electroshock (SES) assay described in Arch. Int. Pharmacodyn. 92:97-107, 1952. In this procedure groups of animals are used. Drugs are prepared using distilled water and, if insoluble, a surfactant is added. Control animals receive vehicle. Drugs are routinely administered intraperitoneally (i.p.). The dosage volume is 10 ml/kg. A primary screen is given a 30 minute pretreat. The animal's eyes are placed across the output terminals of an A.C. shocker that delivers 206 volts rms for 300 msec. Electrode paste coats the animals eyes at the point of contact with the terminals. […] Protection is expressed as normalized percent inhibition relative to vehicle control.
A time response is carried out using six animals/group. Animals are tested at 30, 60 and 120 minutes postdrug. Additional time periods are tested if indicated by previous tests. When the peak activity time has been determined, a dose response is initiated using 10 animals/group at that time period. The ED50 and 95% confidence interval are calculated by computer probit analysis.

[6] = mice, s.c., at peak time of drug activity

| SMILES | ED50 [2, 6] [mg/kg] | ED50 ([3]; mice, s.c.) [mg/kg] | ED50 ([4]; mice, p.o., TBZ 60 mg/kg i.p.) [mg/kg] | also measured |
| --- | --- | --- | --- | --- |
| Brc1ccc2c(c1)c1ccccc1n2Nc1ccncc1.O=C(O)/C=C\C(=O)O [3-Bromo-N-(4-pyridinyl)-9H-carbazol-9-amine maleate] | 1.1 | 1.2 | 7.6 | % of animals with scopolamine induced memory deficit reversal ([1]; dose 0.31 mg/kg body weight): 33% |
| O=C1CC2(CCCC2)CC(=O)N1CCCCN(c1ccncc1)n1c2ccccc2c2ccccc21 [8-[4-(9H-carbazol-9-yl-4-pyridinylamino)butyl]-8-azaspiro[4.5]decane-7,9-dione] |  |  |  | % of animals with scopolamine induced memory deficit reversal ([1]; dose 5.0 mg/kg body weight): 60% |
| CNC1=Nc2ccc(Cl)cc2C(c2ccccc2)=[N+]([O-])C1 [Chlordiazepoxide, reference compound] |  |  |  | ED50 [5]: 8 mg/kg |
| CNCCCN1c2ccccc2CCc2ccccc21 [Desipramine, reference compound] |  |  |  | ED50 [4]: 2.3 mg/kg |
| C=CCN(c1ccncc1)n1c2ccccc2c2ccccc21.O=C(O)/C=C\C(=O)O [N-(2-Propenyl)-N-(4-pyridinyl)-9H-carbazol-9-amine maleate] | 1.2 | 1 | 3.7 |  |
| Cl.Fc1cnccc1Nn1c2ccccc2c2ccccc21 [N-(3-Fluoro-4-pyridinyl)-9H-carbazol-9-amine hydrochloride] | 0.7 | 1.3 |  |  |
| CCCN(c1ccncc1F)n1c2ccccc2c2ccccc21 [N-(3-Fluoro-4-pyridinyl)-N-propyl-9H-carbazol-9-amine] |  |  |  | % of animals with scopolamine induced memory deficit reversal ([1]; dose 1.25 mg/kg body weight): 27% |
| O=C(O)/C=C\C(=O)O.c1ccc2c(c1)c1ccccc1n2Nc1ccncc1 [N-(4-Pyridinyl)-9H-carbazol-9-amine maleate] | 0.4 | 0.5 | 2.3 | ED50 [5]: 23.4 mg/kg |
| CCCCN(c1ccncc1)n1c2ccccc2c2ccccc21.Cl [N-(Butyl)-N-(4-pyridinyl)-9H-carbazol-9-amine hydrochloride] |  |  | 5.2 | % of animals with scopolamine induced memory deficit reversal ([1]; dose 0.63 mg/kg body weight): 33% |
| CCCN(c1ccncc1)n1c2ccccc2c2ccccc21.O=C(O)/C=C\C(=O)O [N-(Propyl)-N-(4-pyridinyl)-9H-carbazol-9-amine maleate] | 9.8 | 4.3 | 1.5 | % of animals with scopolamine induced memory deficit reversal ([1]; dose 2.5 mg/kg body weight): 33%; ED50 [5]: 16.9 mg/kg |
| CCN(c1ccncc1)n1c2ccccc2c2ccccc21.O=C(O)/C=C\C(=O)O [N-Ethyl-N-(4-pyridinyl)-9H-carbazol-9-amine maleate] | 4.3 | 1.1 | 2.2 | ED50 [5]: 6.4 mg/kg |
| CN(c1ccncc1)n1c2ccccc2c2ccccc21.O=C(O)/C=C\C(=O)O [N-Methyl-N-(4-pyridinyl)-9H-carbazol-9-amine maleate] | 0.19 | 0.1 | 1.5 |  |
| CC(C)=CCN1CCC2(C)c3cc(O)ccc3CC1C2C (stereo not shown) [Pentazocin, reference compound] |  |  |  | ED50 [2]: 3.9 mg/kg; ED50 [3]: 1.3 mg/kg |
| CNC(=O)Oc1ccc2c(c1)[C@]1(C)CCN(C)[C@@H]1N2C [Physostigmine, reference compound] |  |  |  | % of animals with scopolamine induced memory deficit reversal ([1]; dose 0.31 mg/kg body weight): 20% |
